Results as given in patent publication US20220096652A1, “ACETAL-BASED CLEAVABLE LINKERS” (Synaffix B.V., priority 2019, published 2022).
Entries after “also recorded” stand apart in the source; their conditions may differ.

What was measured:
[1] = Negative control: incubation in histidine acetate buffer pH 6 without Papain, UPLC-MS; type: physicochemical; details: pH 6, Papain NO, 37° C., 18 h (10, 18) or 67 h (26); for Ratio DXd / s.m.: based on peak area (UV 254 nm)
Protocol: To an Eppendorf vial containing histidine acetate buffer (110 μL, 20 mM, pH 6) was added a solution of 10 in DMF (3 μL, 10 mM).
To an Eppendorf vial containing histidine acetate buffer (110 μL, 20 mM, pH 6) was added a solution of 18 in DMF (3 μL, 10 mM).
To an Eppendorf vial containing histidine acetate buffer (110 μL, 20 mM, pH 6) was added a solution of 26 in DMF (3 μL, 10 mM). […] The intermediate 26-Int was not observed.

[2] = Incubation in 1:1 PBS (pH 7.4) / DMF, UPLC-MS; type: physicochemical; details: pH 7.4, Papain NO, 1:1 PBS/DMF, overnight; based on peak area (UV 254 nm)
Protocol: To a 1:1 mixture of PBS (pH 7.4) and DMF (199 μL) was added a 10 mM solution of 10 in DMF (1 μL). The mixture was incubated overnight and analyzed by UPLC-MS. Intermediate 10-Int and DXd were not observed.
To a 1:1 mixture of PBS (pH 7.4) and DMF (199 μL) was added a 10 mM solution of 18 in DMF (1 μL). The mixture was incubated overnight and analysed by UPLC-MS. Intermediate 18-Int and DXd were not observed.
To a 1:1 mixture of PBS (pH 7.4) and DMF (199 μL) was added a 10 mM solution of 26 in DMF (1 μL). The mixture was incubated overnight and analysed by UPLC-MS. Intermediate 26-Int and DXd were not observed.

Papain = target: T1, Papain (Carica papaya, UniProt P00784); experiment: Papain digestion of linker-drug in histidine acetate buffer, UPLC-MS; type: in vitro ADME; details: pH 6, Papain YES, 37° C., 19 h (10, 18) or 67 h (26)
T1 sequence (P00784 134-345): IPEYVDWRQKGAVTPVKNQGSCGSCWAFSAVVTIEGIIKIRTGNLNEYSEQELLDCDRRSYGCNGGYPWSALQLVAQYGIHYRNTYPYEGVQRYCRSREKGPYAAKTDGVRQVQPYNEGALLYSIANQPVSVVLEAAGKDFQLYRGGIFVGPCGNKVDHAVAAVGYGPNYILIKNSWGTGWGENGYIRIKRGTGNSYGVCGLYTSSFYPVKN
Protocol: To an Eppendorf vial containing histidine acetate buffer (50 μL, 20 mM, pH 6) were added a solution of 10 in DMF (3 μL, 10 mM) and a Papain solution in histidine acetate buffer (0.5 mg/mL, 20 mM buffer, pH 6).
To an Eppendorf vial containing histidine acetate buffer (50 μL, 20 mM, pH 6) were added a solution of 18 in DMF (3 μL, 10 mM) and a Papain solution in histidine acetate buffer (0.5 mg/mL, 20 mM buffer, pH 6).
To an Eppendorf vial containing histidine acetate buffer (50 μL, 20 mM, pH 6) were added a solution of 26 in DMF (3 μL, 10 mM) and a Papain solution in histidine acetate buffer (0.5 mg/mL, 20 mM buffer, pH 6).

Row | Structure (SMILES) | Ratio DXd / s.m. [1] | Ratio DXd / s.m. [2] | Formation of DXd (Papain) | Formation of DXd [1]
1 | CC[C@@]1(O)C(=O)OCc2c1cc1n(c2=O)Cc2c-1nc1cc(F)c(C)c3c1c2[C@@H](NC(=O)COC(C)OCc1ccc(NC(=O)[C@H](C)NC(=O)[C@@H](NC(=O)OCCOCCNC(=O)OC[C@@H]2[C@@H]4CCC#CCC[C@@H]42)C(C)C)cc1)CC3 (stereo partly shown) [Compound 18] | 0 | 0 |  | 
2 | CC[C@@]1(O)C(=O)OCc2c1cc1n(c2=O)Cc2c-1nc1cc(F)c(C)c3c1c2[C@@H](NC(=O)COCOCc1ccc(NC(=O)[C@H](C)NC(=O)[C@@H](NC(=O)OCCOCCNC(=O)OC[C@@H]2[C@@H]4CCC#CCC[C@@H]42)C(C)C)cc1)CC3 [Compound 10] | 0 | 0 | only a very small amount of material was transformed into DXd; also recorded: + / − | 
3 | CC[C@@]1(O)C(=O)OCc2c1cc1n(c2=O)Cc2c-1nc1cc(F)c(C)c3c1c2[C@@H](NC(=O)COC1(OCc2ccc(NC(=O)[C@H](C)NC(=O)[C@@H](NC(=O)OCCOCCNC(=O)OC[C@@H]4[C@@H]5CCC#CCC[C@@H]54)C(C)C)cc2)CCCCC1)CC3 [Compound 26] |  | 0 |  | partial conversion of 26 into DXd; also recorded: + / −
